# Results taken from patent publication US20220220095A1, “N-((HETEROARYL)METHYL)-1-TOSYL-1H-PYRAZOLE-3-CARBOXAMIDE DERIVATIVES AS Kv3 POTASSIUM CHANNEL ACTIVATORS FOR TREATING NEUROLOGICAL AND [sequence] DISORDERS” (H. Lundbeck A/S, priority 2019, published 2022).
# Molecular target: T1, hKv3.1b (Homo sapiens, UniProt P48547)
# T1 construct: expressed in transfected cells
# T1 sequence (P48547 1-585 isoform P48547-2): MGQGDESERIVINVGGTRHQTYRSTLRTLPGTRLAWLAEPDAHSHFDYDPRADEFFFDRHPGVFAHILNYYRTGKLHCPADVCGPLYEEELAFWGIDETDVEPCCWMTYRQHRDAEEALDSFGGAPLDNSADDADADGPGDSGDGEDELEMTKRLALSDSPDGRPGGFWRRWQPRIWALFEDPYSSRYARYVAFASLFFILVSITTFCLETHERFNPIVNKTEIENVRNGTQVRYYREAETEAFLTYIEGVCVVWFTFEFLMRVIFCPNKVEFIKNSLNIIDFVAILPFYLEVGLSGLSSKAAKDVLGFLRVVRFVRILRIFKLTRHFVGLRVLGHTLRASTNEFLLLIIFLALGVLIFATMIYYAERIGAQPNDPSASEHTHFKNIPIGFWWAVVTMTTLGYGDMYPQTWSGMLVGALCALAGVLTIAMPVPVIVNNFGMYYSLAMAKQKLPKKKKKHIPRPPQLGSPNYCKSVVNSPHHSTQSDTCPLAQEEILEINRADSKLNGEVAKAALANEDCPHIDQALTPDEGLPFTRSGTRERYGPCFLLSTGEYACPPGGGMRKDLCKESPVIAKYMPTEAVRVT
# Experiment: Automated whole-cell patch-clamp (QPatch-16x) on HEK-293 cells stably expressing hKv3.1b: shift of voltage threshold for channel activation
# Type: cell-based
# Settings: HEK-293 hKv3.1b; for ECdelta5mV: concentration needed to shift the threshold 5 mV, read out from fitted concentration response curve; for Max Delta threshold: maximum absolute shift of activation threshold to more hyperpolarized potentials at the tested concentrations (0.37, 1.11, 3.33, 10, 30 μM)
# Description: HEK-293 cells stably expressing hKv3.1b was used for the experiments. Cells were cultured in DMEM medium supplemented with 10% Fetal Bovine Serum, 100 ug/mL Geneticidin and 100 u/mL Penicillin/Streptomycin (all from Gibco). Cells were grown to 80-90% confluency at 37° C. and 5% CO2. On the day of the experiment the cells were detached from the tissue culture flasks by Detachin and resuspended in serum free medium containing 25 mM HEPES and transferred to the cell hotel of the QPatch. The cells were used for experiments 0-5 hours after detachment.
# Patch-clamp recordings were performed using the automated recording system QPatch-16x (Sophion Bioscience, Denmark). Cells were centrifuged, SFM removed and the cells were resuspended in extracellular buffer containing (in mM): 145 NaCl, 4 KCl, 1 MgCl2, 2 CaCl2, 10 HEPES and 10 glucose (added fresh on the day of experiment); pH 7.4 adjusted with NaOH, 305 mOsm adjusted with sucrose.
# Single cell whole-cell recordings were carried out using an intracellular solution containing (in mM): 120 KCl, 32.25/10 KOH/EGTA, 5.374 CaCl2, 1.75 MgCl2, 10 HEPES, 4 Na2ATP (added fresh on the day), pH 7.2 adjusted with KOH, […] adjusted with sucrose. Cell membrane potentials were held at −80 mV and currents were evoked by voltage steps (200 ms duration) from −70 mV to +10 mV (in 10 mV increments).
# Leak subtraction protocol was applied at −33% of the sweep amplitude, and serial resistance values were constantly monitored.
# Any cell where serial resistance exceeded 25 MOhm, membrane resistance less than 200 MOhm or current size at −10 mV less than 200 pA was eliminated from the subsequent analysis.
# Data analysis was performed using Sophion's QPatch assay software in combination with Microsoft Excel™ (Redmond, Wash., USA).
# Current voltage relationships were plotted from the peak current at the individual voltage steps normalized to the vehicle addition at 10 mV. The voltage threshold for channel activation was defined as 5% activation of the peak current at 10 mV in presence of vehicle. The activity of the compounds was described as the ability to shift this current voltage relationship to more hyperpolarized potentials and is given as the maximum absolute shift possible at the tested concentrations (0.37, 1.11, 3.33, 10, 30 μM). Concentration response curves were plotted from the threshold shift at the individual concentrations and were fitted excel fit model 205 sigmodal dose-response model (fit=A+((B−A)/1+((C/x)^D)))), where A is the minimum value, B the maximum value, C the EC50 value and D the slope of the curve. The concentration needed to shift the threshold 5 mV was readout from this curve (ECdelta 5 mV).
compound,measurement,value
"Cc1ccc(S(=O)(=O)n2ccc(C(=O)NCc3cn(C)cn3)n2)cc1 [Compound 53, 1-(4-methylbenzene-1-sulfonyl)-N-[(1-methyl-1H-imidazol-4-yl)methyl]-1H-pyrazole-3-carboxamide]",ECdelta5mV,1900 nM
same,Max Delta threshold,20 mV
"Cc1ccc(S(=O)(=O)n2ccc(C(=O)NCc3cncnc3)n2)cc1 [Compound 54, 1-(4-methylbenzene-1-sulfonyl)-N-[(pyrimidin-5-yl)methyl]-1H-pyrazole-3-carboxamide]",ECdelta5mV,2400 nM
same,Max Delta threshold,21 mV
"Cc1ccc(S(=O)(=O)n2ccc(C(=O)NCc3ccno3)n2)cc1 [Compound 55, 1-(4-methylbenzene-1-sulfonyl)-N-[(1,2-oxazol-5-yl)methyl]-1H-pyrazole-3-carboxamide]",ECdelta5mV,1800 nM
same,Max Delta threshold,20 mV
"Cc1ccc(S(=O)(=O)n2ccc(C(=O)NCc3ncon3)n2)cc1 [Compound 57, 1-(4-methylbenzene-1-sulfonyl)-N-[(1,2,4-oxadiazol-3-yl)methyl]-1H-pyrazole-3-carboxamide]",ECdelta5mV,4900 nM
same,Max Delta threshold,13 mV
"Cc1ccc(S(=O)(=O)n2ccc(C(=O)NCc3ccon3)n2)cc1 [Compound 58, 1-(4-methylbenzene-1-sulfonyl)-N-[(1,2-oxazol-3-yl)methyl]-1H-pyrazole-3-carboxamide]",ECdelta5mV,2000 nM
same,Max Delta threshold,17 mV
"Cc1ccc(S(=O)(=O)n2ccc(C(=O)NCc3nccs3)n2)cc1 [Compound 59, 1-(4-methylbenzene-1-sulfonyl)-N-[(1,3-thiazol-2-yl)methyl]-1H-pyrazole-3-carboxamide]",ECdelta5mV,3000 nM
same,Max Delta threshold,14 mV
"Cc1ccc(S(=O)(=O)n2ccc(C(=O)NCc3ncn(C)n3)n2)cc1 [Compound 60, 1-(4-methylbenzene-1-sulfonyl)-N-[(1-methyl-1H-1,2,4-triazol-3-yl)methyl]-1H-pyrazole-3-carboxamide]",ECdelta5mV,2900 nM
same,Max Delta threshold,18 mV
"Cc1ccc(S(=O)(=O)n2ccc(C(=O)NCc3nc(C)cs3)n2)cc1 [Compound 61, 1-(4-methylbenzene-1-sulfonyl)-N-[(4-methyl-1,3-thiazol-2-yl)methyl]-1H-pyrazole-3-carboxamide]",ECdelta5mV,2000 nM
same,Max Delta threshold,19 mV
"Cc1ccc(S(=O)(=O)n2ccc(C(=O)NCc3cnn(C)c3)n2)cc1 [Compound 62, 1-(4-methylbenzene-1-sulfonyl)-N-[(1-methyl-1H-pyrazol-4-yl)methyl]-1H-pyrazole-3-carboxamide]",ECdelta5mV,1600 nM
same,Max Delta threshold,25 mV
"COc1ccc(S(=O)(=O)n2ccc(C(=O)NCc3cccnc3)n2)cc1 [Compound 64, 1-(4-methoxyphenyl)sulfonyl-N-(3-pyridylmethyl)pyrazole-3-carboxamide]",ECdelta5mV,1600 nM
same,Max Delta threshold,24 mV
"Cc1cnc(CNC(=O)c2ccn(S(=O)(=O)c3ccc(OC(F)F)cc3)n2)cn1 [Compound 65, 1-[4-(difluoromethoxy)phenyl]sulfonyl-N-[(5-methylpyrazin-2-yl)methyl]pyrazole-3-carboxamide]",ECdelta5mV,3600 nM
same,Max Delta threshold,25 mV
"Cc1cnc(CNC(=O)c2ccn(S(=O)(=O)c3ccc(F)cc3C)n2)cn1 [Compound 66, 1-(4-fluoro-2-methyl-phenyl)sulfonyl-N-[(5-methylpyrazin-2-yl)methyl]pyrazole-3-carboxamide]",ECdelta5mV,2400 nM
same,Max Delta threshold,31 mV
"Cc1cnc(CNC(=O)c2ccn(S(=O)(=O)c3ccc(Cl)cc3C)n2)cn1 [Compound 67, 1-(4-chloro-2-methyl-phenyl)sulfonyl-N-[(5-methylpyrazin-2-yl)methyl]pyrazole-3-carboxamide]",ECdelta5mV,1100 nM
same,Max Delta threshold,34 mV
"COc1ccc(S(=O)(=O)n2ccc(C(=O)NCc3cnc(C)cn3)n2)c(F)c1 [Compound 68, 1-(2-fluoro-4-methoxy-phenyl)sulfonyl-N-[(5-methylpyrazin-2-yl)methyl]pyrazole-3-carboxamide]",ECdelta5mV,2400 nM
same,Max Delta threshold,42 mV
"Cc1cnc(CNC(=O)c2ccn(S(=O)(=O)c3ccc(F)c(Cl)c3)n2)cn1 [Compound 69, 1-(3-chloro-4-fluoro-phenyl)sulfonyl-N-[(5-methylpyrazin-2-yl)methyl]pyrazole-3-carboxamide]",ECdelta5mV,4600 nM
same,Max Delta threshold,16 mV
"Cc1cnc(CNC(=O)c2ccn(S(=O)(=O)c3ccc(OC(F)(F)F)cc3)n2)cn1 [Compound 70, N-[(5-methylpyrazin-2-yl)methyl]-1-[4-(trifluoromethoxy)phenyl]sulfonyl-pyrazole-3-carboxamide]",ECdelta5mV,4000 nM
same,Max Delta threshold,19 mV
"Cc1cnc(CNC(=O)c2ccn(S(=O)(=O)c3ccc(C(F)F)cc3)n2)cn1 [Compound 71, 1-[4-(difluoromethyl)phenyl]sulfonyl-N-[(5-methylpyrazin-2-yl)methyl]pyrazole-3-carboxamide]",ECdelta5mV,3500 nM
same,Max Delta threshold,27 mV
"Cc1cnc(CNC(=O)c2ccn(S(=O)(=O)c3ccc(Cl)cc3F)n2)cn1 [Compound 73, 1-(4-chloro-2-fluoro-phenyl)sulfonyl-N-[(5-methylpyrazin-2-yl)methyl]pyrazole-3-carboxamide]",ECdelta5mV,2400 nM
same,Max Delta threshold,33 mV
"COc1ccc(S(=O)(=O)n2ccc(C(=O)NCc3cnc(C)cn3)n2)cc1F [Compound 74, 1-(3-fluoro-4-methoxy-phenyl)sulfonyl-N-[(5-methylpyrazin-2-yl)methyl]pyrazole-3-carboxamide]",ECdelta5mV,3200 nM
same,Max Delta threshold,17 mV
"Cc1cnc(CNC(=O)c2ccn(S(=O)(=O)c3cccc(Cl)c3)n2)cn1 [Compound 75, 1-(3-chlorophenyl)sulfonyl-N-[(5-methylpyrazin-2-yl)methyl]pyrazole-3-carboxamide]",ECdelta5mV,3200 nM
same,Max Delta threshold,17 mV
"Cc1cnc(CNC(=O)c2ccn(S(=O)(=O)c3ccc(Cl)cc3)n2)cn1 [Compound 76, 1-(4-chlorophenyl)sulfonyl-N-[(5-methylpyrazin-2-yl)methyl]pyrazole-3-carboxamide]",ECdelta5mV,1500 nM
same,Max Delta threshold,25 mV
"Cc1ccc(S(=O)(=O)n2ccc(C(=O)NCc3cnc(C)cn3)n2)c(C)c1 [Compound 77, 1-(2,4-dimethylphenyl)sulfonyl-N-[(5-methylpyrazin-2-yl)methyl]pyrazole-3-carboxamide]",ECdelta5mV,1100 nM
same,Max Delta threshold,29 mV
"Cc1cnc(CNC(=O)c2ccn(S(=O)(=O)c3ccc(C(F)(F)F)cc3)n2)cn1 [Compound 78, N-[(5-methylpyrazin-2-yl)methyl]-1-[4-(trifluoromethyl)phenyl]sulfonyl-pyrazole-3-carboxamide]",ECdelta5mV,3000 nM
same,Max Delta threshold,23 mV
"Cc1cnc(CNC(=O)c2ccn(S(=O)(=O)c3ccc(C4CC4)cc3)n2)cn1 [Compound 79, 1-(4-cyclopropylphenyl)sulfonyl-N-[(5-methylpyrazin-2-yl)methyl]pyrazole-3-carboxamide]",ECdelta5mV,990 nM
same,Max Delta threshold,32 mV
"Cc1ccc(S(=O)(=O)n2ccc(C(=O)NCc3cnc(C)cn3)n2)c(F)c1 [Compound 80, 1-(2-fluoro-4-methyl-phenyl)sulfonyl-N-[(5-methylpyrazin-2-yl)methyl]pyrazole-3-carboxamide]",ECdelta5mV,1500 nM
same,Max Delta threshold,31 mV
